Reference: the supplement of paper PMC10307832

Columns and labels:
Test in all cases: relative viability (nuclei count vs DMSO), 5 days (fraction); higher = more cells survive
Ispinesib + Phenformin = compound: Cc1ccc(C(=O)N(CCCN)[C@@H](c2nc3cc(Cl)ccc3c(=O)n2Cc2ccccc2)C(C)C)cc1 [Ispinesib] + N=C(N)NC(=N)NCCc1ccccc1 [Phenformin] (partner 250 µM)
Method in brief: (§1)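 After 5 days of treatment, lung cancer cells in 1536-well plates were fixed and stained in a single step (final 0.05% Triton X-100, 1% formaldehyde, 1 ug/ml Hoechst) and their nuclei counted on 4× images. Treatment had been applied by pin tool the day after seeding as one drug alone or as a fixed anchor-drug dose with five library-drug doses (not always all listed) in √10 steps. Relative viability is the nuclei count of treated wells divided by that of vehicle wells, and values are medians of duplicate plates.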

Ispinesib + Crizotinib = compound: Cc1ccc(C(=O)N(CCCN)[C@@H](c2nc3cc(Cl)ccc3c(=O)n2Cc2ccccc2)C(C)C)cc1 [Ispinesib] + C[C@@H](Oc1cc(-c2cnn(C3CCNCC3)c2)cnc1N)c1c(Cl)ccc(F)c1Cl [Crizotinib] (partner 1 µM)
Method in brief: as §1

Linsitinib + Olaparib = compound: C[C@]1(O)C[C@@H](c2nc(-c3ccc4ccc(-c5ccccc5)nc4c3)c3c(N)nccn32)C1 [Linsitinib] + O=C(c1cc(Cc2n[nH]c(=O)c3ccccc23)ccc1F)N1CCN(C(=O)C2CC2)CC1 [Olaparib] (partner 8 µM)
Method in brief: as §1

Linsitinib + Phenformin = compound: C[C@]1(O)C[C@@H](c2nc(-c3ccc4ccc(-c5ccccc5)nc4c3)c3c(N)nccn32)C1 [Linsitinib] + N=C(N)NC(=N)NCCc1ccccc1 [Phenformin] (partner 250 µM)
Method in brief: as §1

Cell Line | relative viability (Ispinesib + Phenformin; first compound 0.001 µM) | relative viability (Ispinesib + Phenformin; first compound 0.003162 µM) | relative viability (Ispinesib + Phenformin; first compound 0.01 µM) | relative viability (Ispinesib + Phenformin; first compound 0.03162 µM) | relative viability (Ispinesib + Phenformin; first compound 0.1 µM) | relative viability (Ispinesib + Crizotinib; first compound 0.001 µM) | relative viability (Ispinesib + Crizotinib; first compound 0.003162 µM) | relative viability (Ispinesib + Crizotinib; first compound 0.01 µM) | relative viability (Ispinesib + Crizotinib; first compound 0.03162 µM) | relative viability (Ispinesib + Crizotinib; first compound 0.1 µM) | relative viability (Linsitinib + Olaparib; first compound 0.01 µM) | relative viability (Linsitinib + Olaparib; first compound 0.03162 µM) | relative viability (Linsitinib + Olaparib; first compound 0.1 µM) | relative viability (Linsitinib + Olaparib; first compound 0.3162 µM) | relative viability (Linsitinib + Olaparib; first compound 1 µM) | relative viability (Linsitinib + Phenformin; first compound 0.01 µM) | relative viability (Linsitinib + Phenformin; first compound 0.03162 µM) | relative viability (Linsitinib + Phenformin; first compound 0.1 µM) | relative viability (Linsitinib + Phenformin; first compound 0.3162 µM) | relative viability (Linsitinib + Phenformin; first compound 1 µM)
NCI-H1666 | 0.524 | 0.6 | 0.541 | 0.475 | 0.343 | 0.952 | 1.12 | 0.948 | 0.794 | 0.293 | 0.743 | 1.02 | 0.76 | 0.667 | 0.75 | 0.539 | 0.394 | 0.534 | 0.314 | 0.511
EKVX | 0.24 | 0.244 | 0.243 | 0.238 | 0.152 | 1.19 | 1.34 | 1.06 | 0.689 | 0.196 |  | 0.861 | 0.951 | 0.489 | 0.648 | 0.278 | 0.21 | 0.235 | 0.216 | 0.224
COR-L 105 | 0.602 | 0.455 | 0.366 | 0.216 | 0.258 | 0.721 | 0.759 | 0.47 | 0.263 | 0.411 | 0.762 | 0.635 | 0.685 | 0.538 | 0.516 | 0.554 | 0.451 | 0.49 | 0.478 | 0.406
NCI-H322M | 0.874 | 0.891 | 0.82 | 0.39 | 0.389 | 1.03 | 0.918 | 0.976 | 0.747 | 0.973 | 0.746 | 0.875 | 0.87 | 0.772 | 0.798 | 0.832 | 0.765 | 0.814 | 0.545 | 0.552
HARA | 0.492 | 0.509 | 0.614 | 0.343 | 0.113 | 1.33 | 1.18 | 1.24 | 1.06 | 0.188 | 0.631 | 0.396 | 0.69 |  | 0.935 | 0.427 | 0.469 | 0.435 |  | 0.4
NCI-H2023 | 0.484 | 0.479 | 0.384 | 0.187 | 0.154 | 0.616 | 0.657 | 0.598 | 0.457 | 0.13 | 0.468 | 0.39 | 0.617 | 0.378 | 0.453 | 0.382 | 0.349 | 0.464 | 0.296 | 0.297
NCI-H1437 | 0.326 | 0.335 | 0.371 | 0.251 | 0.189 | 0.993 | 0.971 | 1.11 | 0.902 | 0.195 | 0.636 | 0.632 | 0.667 | 0.636 | 0.584 | 0.281 | 0.321 | 0.303 | 0.272 | 0.288
BEN | 0.243 | 0.27 | 0.252 | 0.27 | 0.203 | 1.08 | 1.01 | 1.04 | 0.507 | 0.431 | 1.03 | 0.987 | 1.17 | 0.686 | 0.953 | 0.28 | 0.24 | 0.245 |  | 0.292
